Here are results for eight compounds from patent US20210198277A1, “AMINE-SUBSTITUTED ARYL OR HETEROARYL COMPOUNDS” (Epizyme, Inc., priority 2016, published 2021).

In this test the target is T1, EHMT2 (Homo sapiens, UniProt Q96KQ7).
T1 construct: host or cells: MDA-MB-231
T1 sequence (Q96KQ7 1-1210): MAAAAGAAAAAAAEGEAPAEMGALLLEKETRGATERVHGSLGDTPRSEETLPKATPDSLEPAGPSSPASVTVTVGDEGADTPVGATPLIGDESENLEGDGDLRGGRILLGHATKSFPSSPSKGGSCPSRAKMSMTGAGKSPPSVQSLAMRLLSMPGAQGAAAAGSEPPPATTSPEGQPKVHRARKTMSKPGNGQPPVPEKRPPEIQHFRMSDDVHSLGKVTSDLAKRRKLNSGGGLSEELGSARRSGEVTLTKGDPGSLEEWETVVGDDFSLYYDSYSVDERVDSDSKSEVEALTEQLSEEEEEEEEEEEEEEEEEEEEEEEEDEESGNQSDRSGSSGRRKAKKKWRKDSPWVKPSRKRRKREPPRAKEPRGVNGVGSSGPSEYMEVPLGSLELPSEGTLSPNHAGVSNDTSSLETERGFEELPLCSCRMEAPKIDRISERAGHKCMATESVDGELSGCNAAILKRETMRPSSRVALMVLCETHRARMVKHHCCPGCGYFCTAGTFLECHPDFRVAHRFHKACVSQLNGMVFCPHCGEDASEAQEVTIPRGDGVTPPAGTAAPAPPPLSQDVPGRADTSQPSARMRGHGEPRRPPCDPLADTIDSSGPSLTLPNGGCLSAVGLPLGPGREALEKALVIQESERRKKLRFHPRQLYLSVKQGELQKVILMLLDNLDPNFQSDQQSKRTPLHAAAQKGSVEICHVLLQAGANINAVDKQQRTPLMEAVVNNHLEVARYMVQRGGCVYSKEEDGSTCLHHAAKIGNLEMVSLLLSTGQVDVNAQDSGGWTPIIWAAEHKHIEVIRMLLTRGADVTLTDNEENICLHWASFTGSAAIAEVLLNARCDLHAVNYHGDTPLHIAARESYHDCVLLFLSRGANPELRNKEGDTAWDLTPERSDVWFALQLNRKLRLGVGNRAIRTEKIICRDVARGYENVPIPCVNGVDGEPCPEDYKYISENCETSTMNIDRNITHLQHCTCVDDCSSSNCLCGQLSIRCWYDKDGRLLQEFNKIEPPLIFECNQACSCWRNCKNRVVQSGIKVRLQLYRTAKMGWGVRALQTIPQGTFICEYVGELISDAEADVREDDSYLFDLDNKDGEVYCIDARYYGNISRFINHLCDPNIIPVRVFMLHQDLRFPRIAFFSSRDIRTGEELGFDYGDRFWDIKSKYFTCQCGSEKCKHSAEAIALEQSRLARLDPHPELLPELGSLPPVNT
The experiment in a line: MDA-MB-231 H3K9me2 in-cell Western assay (EHMT2 ICW). The class given is cell-based. The conditions noted are these: Table III; MDA-MB-231 H3K9me2 in-cell Western; read-out: EHMT2 ICW (IC50 μM). The gist of the method:
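Steps: compound added to plate, MDA-MB-231 cells plated in RPMI with 10% FBS, incubation for 48 h at 37 °C, fixation, overnight anti-H3K9me2 staining at 4 °C, and donkey anti-mouse 800CW with DRAQ5 counterstain. IC50 values come from percent inhibition fitted with a four-parameter model.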

A value given as a limit tells only on which side of the number the result lay.

Consider `CNc1cc(C)nc(Nc2ccc(OC)c(OCC3CN(CC4CC4)C3)c2)n1` [Compound 445, N^2-(3-((1-(cyclopropylmethyl)azetidin-3-yl)methoxy)-4-methoxyphenyl)-N^4,6-dimethylpyrimidine-2,4-diamine], for which the IC50 lay within 1 to 10 µM.
`CNc1cc(C)nc(Nc2ccc(OC)c(OCC3CCN(C4CCC4)C3)c2)n1` (centres unmarked) [Compound 446, N^2-(3-((1-cyclobutylpyrrolidin-3-yl)methoxy)-4-methoxyphenyl)-N^4,6-dimethylpyrimidine-2,4-diamine]: the IC50 was in the range of 0.1 to 1 µM.
The same measure for `COc1ccc(Nc2nc(C)cc(O)n2)cc1OCCCN1CCCC1` [Compound 447, 2-((4-methoxy-3-(3-(pyrrolidin-1-yl)propoxy)phenyl)amino)-6-methylpyrimidin-4-ol]: over 10 µM.
The result for `COc1ccc(Nc2cc(C)nc(O)n2)cc1OCCCN1CCCC1` [Compound 448, 4-((4-methoxy-3-(3-(pyrrolidin-1-yl)propoxy)phenyl)amino)-6-methylpyrimidin-2-ol] reads over 10 µM; that for `CNc1cc(C)nc(Nc2ccc(OC)c(OCC3CCN(C4COC4)C3)c2)n1` (centres unmarked) [Compound 449, N^2-(4-methoxy-3-((1-(oxetan-3-yl)pyrrolidin-3-yl)methoxy)phenyl)-N^4,6-dimethylpyrimidine-2,4-diamine], 0.1 to 1 µM; that for `CNc1cc(N2CCCC2)nc(Nc2ccc(OC)c(OCCCN3CCCC3)c2)n1` [Compound 450, N^2-(4-methoxy-3-(3-(pyrrolidin-1-yl)propoxy)phenyl)-N^4-methyl-6-(pyrrolidin-1-yl)pyrimidine-2,4-diamine], over 10 µM.
The result for `COc1ccc(Nc2nc(C)cc(NCC3CCOCC3)n2)cc1OCC1CCN(C)C1` (centres unmarked) [Compound 451, N^2-(4-methoxy-3-((1-methylpyrrolidin-3-yl)methoxy)phenyl)-6-methyl-N^4-((tetrahydro-2H-pyran-4-yl)methyl)pyrimidine-2,4-diamine] reads 1 to 10 µM; that for `CNc1cc(C)nc(Nc2ccc(OC)c(OCC3CCCO3)c2)n1` (centres unmarked) [Compound 452, N^2-(4-methoxy-3-((tetrahydrofuran-2-yl)methoxy)phenyl)-N^4,6-dimethylpyrimidine-2,4-diamine], over 10 µM.
